Values of other authors as cited in US20100173012A1 (priority 2008, published 2010).

System: Fusarium graminearum
Settings: previous work of the inventors

SMILES | use to reduce ascospore discharge in F. graminearum
OCC(O)CO [glycerol] | successfully used
CCN(CC)CCCCCCCCOC(=O)c1cc(OC)c(OC)c(OC)c1 [TMB8] | successfully used
Cc1ccc(S(=O)(=O)NC(=O)NN2CCCCCC2)cc1 [Tolazamide] | successfully used
O=C(O)CN(CC(=O)O)c1ccccc1OCCOc1ccccc1N(CC(=O)O)CC(=O)O [BAPTA] | successfully used
OC[C@@H](O)[C@@H](O)[C@H](O)[C@H](O)CO [mannitol] | successfully used
COc1ccc(Cl)cc1C(=O)NCCc1ccc(S(=O)(=O)NC(=O)NC2CCCCC2)cc1 [glyburide] | successfully used
COc1ccc(CCN(C)CCCC(C#N)(c2ccc(OC)c(OC)c2)C(C)C)cc1OC (stereo not shown) [verapamil] | successfully used
